According to patent US10300066B2, “Polyfluorinated compounds acting as bruton tyrosine kinase inhibitors” (ZHEJIANG DTRM BIOPHARMA CO. LTD., priority 2014, dated 2019):

Tests used:
[1] = Toxicity and TK studies, 28-day rat and dog; conditions: 28-day rat and dog studies
Excerpt: Toxicity and toxicokinetic (TK) studies of the compounds can be performed by well known methods.

[2] = 28-day toxicokinetic (TK) study in rats; assay type: in vivo, rat; conditions: for AUC: rat, in vivo, read-out: AUC (area under the curve)
[3] = 28-day toxicokinetic (TK) study in dogs; assay type: in vivo, dog; conditions: for AUC: dog, in vivo, 15 mg/kg
[4] = 100 mg/kg, Study Day 28, Female
[5] = 45 mg/kg/day, Study Day 1, Female

With `C=CC(=O)N1CC[C@@H](n2nc(-c3ccc(Oc4c(F)c(F)cc(F)c4F)cc3F)c3c(N)ncnc32)C1` [Compound 45, 1-((R)-3-(4-amino-3-(2-fluoro-4-(2,3,5,6-tetrafluorophenoxy)phenyl)-1H-pyrazolo[3,4-d]pyrimidin-1-yl)pyrrolidin-1-yl)prop-2-en-1-one] the “Bioavailability compared to ibrutinib” value [1] was “superior bioavailability”, the “Drug exposure, Day 1 versus Day 28” value [1] was “no significant difference” and the “Drug exposure, male versus female” value [1] was “no significant difference”. For the same molecule, the “Pharmacokinetics compared to ibrutinib” value [1] was “excellent pharmacokinetics”, the “Toxicity compared to ibrutinib” value [1] was “low toxicity” and the “AUC compared to ibrutinib” value [2] was “significantly higher”. For the same molecule, the Cmax ([2]; 40 mg/kg, Study Day 1, Female) was 2660 ng/mL, the Cmax ([2]; 40 mg/kg, Study Day 28, Male) was 2090 ng/mL and the AUC0-24 h [2, 4] was 29600 ng·h/mL. It also gave a Cmax [2, 4] of 3830 ng/mL, an AUC0-24 h ([2]; 100 mg/kg, Study Day 28, Male) of 30300 ng·h/mL and a Cmax ([2]; 200 mg/kg, Study Day 28, Male) of 4540 ng/mL. The AUC ([2]; 40 mg/kg, female) was 17300 ng·h/mL, the AUC ([2]; 40 mg/kg, male) was 13700 ng·h/mL and the “AUC compared to ibrutinib” value [3] was “significantly higher”. It also gave an AUC0-24 h [3, 5] of 6220 ± 3000 ng·h/mL, a Cmax [3, 5] of 1220 ± 431 ng/mL and a Cmax ([3]; 150 mg/kg/day, Study Day 1, Male) of 2460 ± 858 ng/mL. The AUC ([3]; female) was 2930 ng·h/mL and the AUC ([3]; male) was 3550 ng·h/mL.
